Data set [1] in a line: logD by shake flask method (octanol / PBS pH 7.4, HPLC). The class given is physicochemical. The following applies: octanol / PBS pH 7.4, shake flask. An outline of the steps:
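Shake-flask partition of compound between octanol and phosphate-buffered saline at pH 7.4, with each phase quantified by HPLC to give LogD.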

Data set [2] concerns the target T1, recombinant human transglutaminase 2 (Homo sapiens, UniProt P21980).
T1 construct: purchased Zedira T022
T1 sequence (P21980 1-687): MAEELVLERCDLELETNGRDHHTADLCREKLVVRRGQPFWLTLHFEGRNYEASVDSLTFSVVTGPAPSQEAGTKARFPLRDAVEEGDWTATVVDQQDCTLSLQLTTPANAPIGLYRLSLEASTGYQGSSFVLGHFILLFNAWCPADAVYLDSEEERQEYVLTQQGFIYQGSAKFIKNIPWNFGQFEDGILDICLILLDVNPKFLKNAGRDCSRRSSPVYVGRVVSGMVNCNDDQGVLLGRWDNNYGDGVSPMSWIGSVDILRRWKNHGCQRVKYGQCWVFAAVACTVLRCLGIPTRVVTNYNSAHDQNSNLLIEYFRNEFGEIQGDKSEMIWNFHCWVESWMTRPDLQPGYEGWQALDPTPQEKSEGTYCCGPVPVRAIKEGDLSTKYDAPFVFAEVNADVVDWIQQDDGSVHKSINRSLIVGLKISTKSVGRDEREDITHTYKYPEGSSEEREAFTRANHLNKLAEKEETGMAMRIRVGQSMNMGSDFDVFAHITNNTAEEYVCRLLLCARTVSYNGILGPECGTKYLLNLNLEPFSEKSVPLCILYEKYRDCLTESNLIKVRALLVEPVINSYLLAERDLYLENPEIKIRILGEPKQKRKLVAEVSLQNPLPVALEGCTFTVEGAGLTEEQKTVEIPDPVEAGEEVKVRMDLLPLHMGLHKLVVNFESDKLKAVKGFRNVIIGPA
The data set is described as follows: Transglutaminase assay (DCC-assay): incorporation of dansylcadaverine into dimethylcasein. In kind it is biochemical. The conditions noted are these: recombinant human TG2 10 nM; dansylcadaverine incorporation into dimethylcasein; read-out: IC50 TG2. The method in brief:
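Recombinant human TG2 (10 nM final) incorporates dansylcadaverine into N,N-dimethylcasein. Reaction mix: 50 mM Tris-HCl, 10 mM CaCl2, 10 mM glutathione, 2.5% glycerol, 16.7 µM dansylcadaverine, 4 µM dimethylcasein, 200 mM NaCl, pH 8.0. Fluorescence (ex 330/em 500 nm) was followed 30 min at 37 °C; the 20–30 min slope, expressed as % of 2% DMSO control, gave IC50.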

Data set [3] in a line: Caco-2 permeability assay (CacoReady kit). The class given is in vitro ADME. The following applies: human, Caco-2, Caco-2 barrier, CacoReady kit; above 1×10^−6 cm/s classified as permeable. The method in brief:
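Apparent permeability coefficients (Papp) were measured across Caco-2 cell barriers using a ready-to-use kit run per the supplier's protocol. Values serve as a predictor of oral/intestinal bioavailability.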

Among the data in patent publication US20240383856A1 (Zedira GmbH, priority 2021, published 2024) are logD, IC50 and Papp values, retold here.

A value given as a limit tells only on which side of the number the result lay.

`CNC(=O)C(=O)CC[C@H](NC(=O)c1oc2ccccc2c1C)C(=O)Nc1cccn(CC(=O)NC23CC(C2)C3)c1=O` [II-167, (S)-N1-(1-(2-(bicyclo[1.1.1]pentan-1-ylamino)-2-oxoethyl)-2-oxo-1,2-dihydropyridin-3-yl)-N6-methyl-2-(3-methylbenzofuran-2-carboxamido)-5-oxohexanediamide] yielded a logD in data set [1] of under 1. The IC50 in data set [2] was under 40 nM. In data set [3], the apparent permeability coefficient (Papp) was 1 to 10 ×10⁻⁶ cm/s.

Regarding `CNC(=O)C(=O)CC[C@H](NC(=O)c1coc(C(C)=O)n1)C(=O)Nc1cccn(CC(=O)NC23CC(C2)C3)c1=O` [II-168, (S)-2-(2-acetyloxazole-4-carboxamido)-N1-(1-(2-(bicyclo[1.1.1]pentan-1-ylamino)-2-oxoethyl)-2-oxo-1,2-dihydropyridin-3-yl)-N6-methyl-5-oxohexanediamide], the pH-dependent lipophilicity (logD) in data set [1] is under 1. Besides, the IC50 in data set [2] lay in the range of 40 to 400 nM. In data set [3], this compound showed a Papp of under 1 ×10⁻⁶ cm/s.

For `CNC(=O)C(=O)CC[C@H](NC(=O)c1oc2ccccc2c1C)C(=O)Nc1cccn(CC(=O)NC23CCC(C2)C3)c1=O` [II-169, (S)-N1-(1-(2-(bicyclo[2.1.1]hexan-1-ylamino)-2-oxoethyl)-2-oxo-1,2-dihydropyridin-3-yl)-N6-methyl-2-(3-methylbenzofuran-2-carboxamido)-5-oxohexanediamide], the logD in data set [1] is under 1. In addition, the IC50 in data set [2] was under 40 nM. This compound also gave a Papp in data set [3] of 1 to 10 ×10⁻⁶ cm/s.

On to `CNC(=O)C(=O)CC[C@H](NC(=O)c1cnc(C(C)C)o1)C(=O)Nc1cccn(CC(=O)NC23CCC(C2)C3)c1=O` [II-170, (S)-N1-(1-(2-(bicyclo[2.1.1]hexan-1-ylamino)-2-oxoethyl)-2-oxo-1,2-dihydropyridin-3-yl)-2-(2-isopropyloxazole-5-carboxamido)-N6-methyl-5-oxohexanediamide], for which, in data set [1], the logD was under 1. In addition, in data set [2], the IC50 lay in the range of 40 to 400 nM. Besides, the Papp in data set [3] was 1 to 10 ×10⁻⁶ cm/s.

In turn, `CNC(=O)C(=O)CC[C@H](NC(=O)c1cc2ccccc2o1)C(=O)Nc1cccn(CC(=O)NC2C3CCCC2CC3)c1=O` (stereo partly drawn) [II-171, (2S)-2-(benzofuran-2-carboxamido)-N1-(1-(2-(bicyclo[3.2.1]octan-8-ylamino)-2-oxoethyl)-2-oxo-1,2-dihydropyridin-3-yl)-N6-methyl-5-oxohexanediamide] displayed a logD in data set [1] of under 1. Besides, the IC50 in data set [2] was under 40 nM. The same compound had a Papp in data set [3] of 1 to 10 ×10⁻⁶ cm/s.

The compound `CNC(=O)C(=O)CC[C@H](NC(=O)c1c(C)noc1C)C(=O)Nc1cccn(CC(=O)NC2C3CCCC2CC3)c1=O` (stereo partly drawn) [II-172, (2S)-N1-(1-(2-(bicyclo[3.2.1]octan-8-ylamino)-2-oxoethyl)-2-oxo-1,2-dihydropyridin-3-yl)-2-(3,5-dimethylisoxazole-4-carboxamido)-N6-methyl-5-oxohexanediamide] returned a logD in data set [1] of under 1. The IC50 in data set [2] lay in the range of 40 to 400 nM. In data set [3], this compound registered a Papp of 1 to 10 ×10⁻⁶ cm/s.

The compound `CNC(=O)C(=O)CC[C@H](NC(=O)c1cncnc1C)C(=O)Nc1cccn(CC(=O)NC2C3CC4CC2CC(C(=O)O)(C4)C3)c1=O` (stereo partly drawn) [II-173, (S)-N1-(1-(2-(5-carboxy-2-aminoadamantane)-2-oxoethyl)-2-oxo-1,2-dihydropyridin-3-yl)-N6-methyl-2-(4-methylpyrimidine-5-carboxamido)-5-oxohexanediamide] displayed a logD in data set [1] of under 1. Also, the half-inhibitory concentration (IC50) in data set [2] is 40 to 400 nM. In addition, the Papp in data set [3] is under 1 ×10⁻⁶ cm/s.

The compound `CNC(=O)C(=O)CC[C@H](NC(=O)C1CCc2ccccc2C1)C(=O)Nc1cccn(CC(=O)NC2C3CC4CC2CC(C(=O)N(C)C)(C4)C3)c1=O` (stereo partly drawn) [II-174, (2S)-N1-(1-(2-(4-aminoadamantane-N,N-dimethyl-1-carboxamide)-2-oxoethyl)-2-oxo-1,2-dihydropyridin-3-yl)-N6-methyl-5-oxo-2-(1,2,3,4-tetrahydronaphthalene-2-carboxamido)hexanediamide] had a logD in data set [1] of under 1. In data set [2], the concentration for half-maximal inhibition (IC50) is 40 to 400 nM. Also, in data set [3], the apparent permeability (Papp) was under 1 ×10⁻⁶ cm/s.

In turn, `CC(C)(C)NC(=O)C(=O)CC[C@H](NC(=O)[C@@H]1CN2CCN1CC2)C(=O)Nc1cccn(CC(=O)NC2C3CC4CC(C3)CC2C4)c1=O` (stereo partly drawn) [II-175, (S)-2-((S)-1,4-diazabicyclo[2.2.2]octane-2-carboxamido)-N6-tert-butyl-N1-(1-(2-(2-adamantylamino)-2-oxoethyl)-2-oxo-1,2-dihydropyridin-3-yl)-5-oxohexanediamide] came in with a logD in data set [1] of 1 to 3. For the same compound, the IC50 in data set [2] lay within 400 to 2500 nM. This compound registered a Papp in data set [3] of under 1 ×10⁻⁶ cm/s.

In the case of `CC(C)(C)NC(=O)C(=O)CC[C@H](NC(=O)c1c[nH]c2ccccc12)C(=O)Nc1cccn(CC(=O)NC2C3CC4CC(C3)CC2C4)c1=O` (stereo partly drawn) [II-176, (S)-N1-tert-butyl-5-(1H-indole-3-carboxamido)-N6-(1-(2-(2-adamantylamino)-2-oxoethyl)-2-oxo-1,2-dihydropyridin-3-yl)-2-oxohexanediamide], the log distribution coefficient (logD) in data set [1] was 3 to 5. In addition, the IC50 in data set [2] is 400 to 2500 nM. In addition, the Papp in data set [3] was in the range of 1 to 10 ×10⁻⁶ cm/s.

Regarding `Cc1cn2c(C(=O)N[C@@H](CCC(=O)C(=O)NC(C)(C)C)C(=O)Nc3cccn(CC(=O)NC4C5CC6CC(C5)CC4C6)c3=O)csc2n1` (stereo partly drawn) [II-177, (S)-N1-tert-butyl-N6-(1-(2-(2-adamantylamino)-2-oxoethyl)-2-oxo-1,2-dihydropyridin-3-yl)-5-(6-methylimidazo[2,1-b]thiazole-3-carboxamido)-2-oxohexanediamide], the logD in data set [1] lay within 3 to 5. In addition, the IC50 in data set [2] lay within 400 to 2500 nM. Also, the apparent permeability (Papp) in data set [3] lay within 1 to 10 ×10⁻⁶ cm/s.

For the compound `O=C(Cn1cccc(NC(=O)[C@H](CCC(=O)C(=O)NC2CCCC2)NC(=O)c2nc3ccccc3s2)c1=O)N[C@@H]1C[C@@H]2CC[C@H]1C2` [II-178, (S)-2-(benzo[d]thiazole-2-carboxamido)-N1-(1-(2-((1S,2R,4R)-bicyclo[2.2.1]heptan-2-ylamino)-2-oxoethyl)-2-oxo-1,2-dihydropyridin-3-yl)-N6-cyclopentyl-5-oxohexanediamide], the logD in data set [1] lay in the range of 3 to 5. The IC50 in data set [2] lay within 40 to 400 nM. In data set [3], this compound returned an apparent permeability coefficient (Papp) of 1 to 10 ×10⁻⁶ cm/s.

`O=C(Cn1cccc(NC(=O)[C@H](CCC(=O)C(=O)NC2CCCC2)NC(=O)c2cn3ccsc3n2)c1=O)N[C@@H]1C[C@@H]2CC[C@H]1C2` [II-179, (S)-N1-(1-(2-((1S,2R,4R)-bicyclo[2.2.1]heptan-2-ylamino)-2-oxoethyl)-2-oxo-1,2-dihydropyridin-3-yl)-N6-cyclopentyl-2-(imidazo[2,1-b]thiazole-6-carboxamido)-5-oxohexanediamide] had a logD in data set [1] of 1 to 3. Also, the IC50 in data set [2] lay in the range of 400 to 2500 nM. Moreover, in data set [3], the Papp lay in the range of 1 to 10 ×10⁻⁶ cm/s.

Consider `O=C(Cn1cccc(NC(=O)[C@H](CCC(=O)C(=O)NC2CCCC2)NC(=O)c2cnc3ccc(OC(F)(F)F)cc3c2O)c1=O)N[C@@H]1C[C@@H]2CC[C@H]1C2` [II-180, (S)-N1-(1-(2-((1S,2R,4R)-bicyclo[2.2.1]heptan-2-ylamino)-2-oxoethyl)-2-oxo-1,2-dihydropyridin-3-yl)-N6-cyclopentyl-2-(4-hydroxy-6-(trifluoromethoxy)quinoline-3-carboxamido)-5-oxohexanediamide], for which the logD in data set [1] lay within 3 to 5. Further, the IC50 in data set [2] fell in the range of 400 to 2500 nM. This compound also returned a Papp in data set [3] of under 1 ×10⁻⁶ cm/s.

Compound `O=C(Cn1cccc(NC(=O)[C@H](CCC(=O)C(=O)NC2CCCCC2)NC(=O)c2cc3ccccc3nn2)c1=O)NC12CC(C1)C2` [II-181, (S)-N1-(1-(2-(bicyclo[1.1.1]pentan-1-ylamino)-2-oxoethyl)-2-oxo-1,2-dihydropyridin-3-yl)-2-(cinnoline-3-carboxamido)-N6-cyclohexyl-5-oxohexanediamide] came in with a logD in data set [1] of 1 to 3. Besides, the IC50 in data set [2] lay in the range of 400 to 2500 nM. This compound registered a Papp in data set [3] of under 1 ×10⁻⁶ cm/s.

In data set [1], `CCc1c(C(=O)N[C@@H](CCC(=O)C(=O)NC2CCCCC2)C(=O)Nc2cccn(CC(=O)NC34CC(C3)C4)c2=O)oc2ccccc12` [II-182, (S)-N1-(1-(2-(bicyclo[1.1.1]pentan-1-ylamino)-2-oxoethyl)-2-oxo-1,2-dihydropyridin-3-yl)-N6-cyclohexyl-2-(3-ethylbenzofuran-2-carboxamido)-5-oxohexanediamide] displayed a logD of 1 to 3. Besides, the IC50 in data set [2] lay in the range of 40 to 400 nM. This compound displayed a Papp in data set [3] of 1 to 10 ×10⁻⁶ cm/s.

For orientation: logD means lipophilicity at a set pH, counting ionised and neutral species. Higher therefore signals higher lipophilicity. In general, IC50 refers to the concentration needed to halve the response being measured. As usually defined, the Papp is a coefficient for how fast a substance crosses the barrier. The low end stands for poor permeation, the high end for ready permeation.
